Active and inactive are the calls of the source. No rule for the calls is given here.
Molecular target: not listed separately
Test: vacuolar alkalinization by V-ATPase blockade – S. cerevisiae, BCECF dye, powder sets 2-3, dose response (AID 651731)
Settings: S. cerevisiae vacuolar pH, BCECF fluorescence; at 100 µM (top of the series)

| SMILES | response (vacuolar pH increase) |
| --- | --- |
| CS(=O)(=O)c1cccc(C(=O)Nc2ccccc2N2CCOCC2)c1 | inactive |
| CC(C)(C)c1ccc(C(=O)N2CCN(c3nc4ccc(F)cc4s3)CC2)o1 | inactive |
| O=C(c1cccc(Br)n1)N1CCN(c2nc3ccc(F)cc3s2)CC1 | inactive |
| CN(C)C(=O)c1cccc(C(=O)N2CCN(c3nc4ccc(F)cc4s3)CC2)c1 | inactive |
| O=C(c1ccc(-c2ccccc2)o1)N1CCN(c2nc3ccc(F)cc3s2)CC1 | inactive |
| COCc1cccc(C(=O)Nc2ccccc2N2CCOCC2)c1 | inactive |
| O=C(Nc1ccccc1N1CCOCC1)c1cccc(C(F)(F)F)c1 | inactive |
| NS(=O)(=O)c1ccc(C(=O)N2CCN(c3nc4ccc(F)cc4s3)CC2)o1 | inactive |
| O=C(c1cc(C(F)(F)F)ccn1)N1CCN(c2nc3ccc(F)cc3s2)CC1 | inactive |
| O=C(c1cc(CO)ccn1)N1CCN(c2nc3ccc(F)cc3s2)CC1 | inactive |
| NS(=O)(=O)c1cccc(C(=O)N2CCN(c3nc4ccc(F)cc4s3)CC2)c1 | inactive |
| O=C(Nc1ccccc1N1CCOCC1)c1ccc(-c2ccccc2)o1 | inactive |
| NC(=O)c1cccc(C(=O)N2CCN(c3nc4ccc(F)cc4s3)CC2)c1 | inactive |
| O=C(Nc1ccccc1N1CCOCC1)c1ccc(C(F)(F)F)o1 | inactive |
| CC(C)(C)c1ccc(C(=O)Nc2ccccc2N2CCOCC2)o1 | inactive |
| O=C(Nc1ccccc1N1CCOCC1)c1cccc(C(F)(F)F)n1 | inactive |
| NC(=O)c1cccc(C(=O)Nc2ccccc2N2CCOCC2)c1 | inactive |
| O=C(c1cncc(Cl)n1)N1CCN(c2nc3ccc(F)cc3s2)CC1 | inactive |
| Nc1cncc(C(=O)N2CCN(c3nc4ccc(F)cc4s3)CC2)n1 | inactive |
| O=C(Nc1ccccc1N1CCOCC1)c1cncc(Cl)n1 | inactive |

| SMILES | response (vacuolar pH increase) |
| --- | --- |
| O=C(Nc1ccccc1N1CCOCC1)c1cccc(Br)n1 | inactive |
| N#Cc1ccnc(C(=O)N2CCN(c3nc4ccc(F)cc4s3)CC2)c1 | inactive |
| Cc1cncc(C(=O)Nc2ccccc2N2CCOCC2)n1 | inactive |
| COCc1ccc(C(=O)N2CCN(c3nc4ccc(F)cc4s3)CC2)o1 | inactive |
| CN(C)Cc1ccc(C(=O)Nc2ccccc2N2CCOCC2)o1 | inactive |
| CN(C)Cc1cccc(C(=O)Nc2ccccc2N2CCOCC2)c1 | inactive |
| Cc1ccnc(C(=O)N2CCN(c3nc4ccc(F)cc4s3)CC2)c1 | inactive |
| N#Cc1cccc(C(=O)N2CCN(c3nc4ccc(F)cc4s3)CC2)c1 | inactive |
| CN(C)S(=O)(=O)c1cccc(C(=O)N2CCN(c3nc4ccc(F)cc4s3)CC2)c1 | inactive |
| Cc1cccc(C(=O)Nc2ccccc2N2CCOCC2)n1 | inactive |
| Nc1ncc(C(=O)Nc2ccccc2N2CCOCC2)o1 | inactive |
| Cc1ccc(C(=O)Nc2ccccc2N2CCOCC2)o1 | inactive |
| O=C(c1cc(Cl)ccn1)N1CCN(c2nc3ccc(F)cc3s2)CC1 | inactive |
| CN(C)Cc1ccc(C(=O)N2CCN(c3nc4ccc(F)cc4s3)CC2)o1 | inactive |
| COCc1cccc(C(=O)N2CCN(c3nc4ccc(F)cc4s3)CC2)c1 | inactive |
| CN(C)C(=O)c1cccc(C(=O)Nc2ccccc2N2CCOCC2)c1 | inactive |
| O=C(Nc1ccccc1N1CCOCC1)c1cc(Cl)ccn1 | inactive |
| NC(=O)c1ccc(C(=O)N2CCN(c3nc4ccc(F)cc4s3)CC2)o1 | inactive |
| Cc1ccnc(C(=O)Nc2ccccc2N2CCOCC2)c1 | inactive |
| Cc1cccc(C(=O)N2CCN(c3nc4ccc(F)cc4s3)CC2)n1 | inactive |

| SMILES | response (vacuolar pH increase) |
| --- | --- |
| O=C(Nc1ccccc1N1CCOCC1)c1ccc(Br)o1 | inactive |
| CN(C)S(=O)(=O)c1cccc(C(=O)Nc2ccccc2N2CCOCC2)c1 | inactive |
| Cc1cncc(C(=O)N2CCN(c3nc4ccc(F)cc4s3)CC2)n1 | inactive |
| O=C(c1ccc(C(F)(F)F)o1)N1CCN(c2nc3ccc(F)cc3s2)CC1 | inactive |
| O=C(Nc1ccccc1N1CCOCC1)c1cc(C(F)(F)F)ccn1 | inactive |
| N#Cc1ccnc(C(=O)Nc2ccccc2N2CCOCC2)c1 | inactive |
| Nc1ncc(C(=O)N2CCN(c3nc4ccc(F)cc4s3)CC2)o1 | inactive |
| Nc1cncc(C(=O)Nc2ccccc2N2CCOCC2)n1 | inactive |
| NS(=O)(=O)c1cccc(C(=O)Nc2ccccc2N2CCOCC2)c1 | inactive |
| Cc1ccc(C(=O)N2CCN(c3nc4ccc(F)cc4s3)CC2)o1 | inactive |
| CS(=O)(=O)Cc1cccc(C(=O)N2CCN(c3nc4ccc(F)cc4s3)CC2)c1 | inactive |
| CN(C)Cc1cccc(C(=O)N2CCN(c3nc4ccc(F)cc4s3)CC2)c1 | inactive |
| O=C(c1ccc(Br)o1)N1CCN(c2nc3ccc(F)cc3s2)CC1 | inactive |
| N#Cc1cccc(C(=O)Nc2ccccc2N2CCOCC2)c1 | inactive |
| CS(=O)(=O)c1ccc(C(=O)N2CCN(c3nc4ccc(F)cc4s3)CC2)o1 | inactive |
| COCc1ccc(C(=O)Nc2ccccc2N2CCOCC2)o1 | inactive |
| O=C(Nc1ccccc1N1CCOCC1)c1cccc(Cl)n1 | inactive |
| CS(=O)(=O)c1ccc(C(=O)Nc2ccccc2N2CCOCC2)o1 | inactive |

Molecular target: S. cerevisiae vacuolar pH, BCECF fluorescence
Test: as above
Settings: not given

| SMILES | EC50 [µM] |
| --- | --- |
| O=C(c1cccc(C(F)(F)F)c1)N1CCN(c2nc3ccc(F)cc3s2)CC1 | 31.8 |
| O=C(c1cccc(Cl)n1)N1CCN(c2nc3ccc(F)cc3s2)CC1 | 37.4 |
| O=C(c1cccc(C(F)(F)F)n1)N1CCN(c2nc3ccc(F)cc3s2)CC1 | 60.5 |

— PubChem BioAssay AID651731 (NMMLSC, 2012)
